Earlier results in patent US20080233144A1, “Use of the Mushroom Agaricus Blazei Murill for the Production of Medicaments Suitable for Treating Infections and Allergies” (priority 2004, published 2008).

Tested on: Streptococcus pneumoniae serotype 6B
Conditions: previous experiments

In the case of β-glucan, the “effect in the pneumococcus infection model when given via gavage” value is given as “did not have any effect”.
